Results as given in patent US4462941A, “Dynorphin amide analogs” (The Regents of the University of California, priority 1982, dated 1984).
Where no end group is shown, it is not given here.

Tests used:
[1] = test system: morphine tolerant animals; assay: Tail-flick analgesia, morphine s.c. with or without peptide i.c.v., morphine tolerant animals; type: in vivo; settings: tolerant mice
Procedure: (§1) Male simonesen ICR mice (Gilroy, CA) weighing between 20-25 g were housed for at least one day prior to experimentation, and used within 5 days. Each mouse was used only once.
(§2) Analgesia was measured by the tail-flick method of D'Amour and Smith, J. Pharmac. Exp. Ther., 72, pp. 74-79 (1941), incorporated herein by reference, as modified by Tulunay and Takemori, J. Pharmac. Exp. Ther., 190, pp. 395-400 (1974), incorporated herein by reference. […] Nonresponding animals were removed from the heat stimulus when reaction times exceeded 10 sec. to avoid the tail damage.
(§3) Drugs were injected 30 min. prior to testing, unless otherwise indicated.
The animals were separated into two groups. […] Exp. Ther., 167, pp. 1-8 (1969), incorporated herein by reference.
(§4) The ED50 values, their 95% confidence limits and significance of the potency ratio between two ED50 values were determined by the method of Litchfield and Wilcoxon, J. Pharmac. Exp. Ther., 96: 99-113 (1949), incorporated herein by reference.

mouse vas deferens = settings: read-out: IC50 inhibiting the twitch of the mouse vas deferens
mice = assay: Analgesic activity of the peptide by itself (mouse tail-flick)
Procedure: as §2, §3

[2] = compared with dynorphin(1-13)
[3] = test system: morphine tolerant animals; assay: Tail-flick analgesia, β-endorphin i.c.v. with or without dynorphin(1-13) i.c.v., morphine tolerant animals; type: in vivo; settings: tolerant mice
Excerpt: as §1
The animals were separated into two groups. The one group was morphine tolerant (e.g., addicted); the other group was naive (e.g., not addicted). […] Exp. Ther., 167, pp. 1-8 (1969), incorporated herein by reference.
as §4

## CN1CC[C@]23c4c5ccc(O)c4O[C@H]2[C@@H](O)C=C[C@H]3[C@H]1C5.O=S(=O)(O)O [Morphine, morphine sulfate]
[1]; morphine 60 mg/kg s.c. alone
  Analgesia (%): 40%
[1]; morphine 80 mg/kg s.c. alone
  Analgesia (%): 90%

## CC[C@H](C)[C@H](NC(=O)[C@H](CCCNC(=N)N)NC(=O)[C@H](CCCNC(=N)N)NC(=O)[C@H](CC(C)C)NC(=O)[C@H](Cc1ccccc1)NC(=O)CNC(=O)CNC(=O)[C@@H](N)Cc1ccc(O)cc1)C(=O)N[C@@H](CCCNC(=N)N)C(=O)N1CCC[C@H]1C(=O)N[C@@H](CCCCN)C(=O)N[C@@H](CC(C)C)C(=O)N[C@@H](CCCCN)C(=O)O [dynorphin(1-13)]
Mouse vas deferens
  IC50: 3.9 nM

## YGGFLRRIRP-NH2 [dynorphin(1-10) amide, Dynorphin(1-10)-NH2]
mice
  behavior at huge doses: tends to produce convulsions
[2]
  rate of metabolism by the host: less quickly metabolized
Mouse vas deferens
  IC50: 0.24 nM

## β-endorphin
[3]; β-endorphin 1 μg/mouse i.c.v. alone
  Analgesia (%): 10%
[3]; β-endorphin 2 μg/mouse i.c.v. alone
  Analgesia (%): 40%
[3]; β-endorphin 6 μg/mouse i.c.v. alone
  Analgesia (%): 100%
[3]; β-endorphin i.c.v. alone
  ED50 of β-endorphin: about 2.25 μg/mouse
